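Cells were grown in 96-well plates and exposed to each compound for 48 hours at five concentrations; endpoints were interpolated linearly between bracketing concentrations, or set to the highest concentration if not reached. Here, GI50 denotes the concentration required for 50% inhibition of growth. TGI denotes the concentration required for complete inhibition of growth.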

Test systems include HS 578T breast; NCI-H226 lung; MDA-MB-231 breast; SF-268 CNS; SK-MEL-5 melanoma; OVCAR-3 ovarian; HOP-62 NSCLC; IGROV1 ovarian; U251 CNS; T-47D breast.
Holding throughout (test): inhibition of tumour cell growth, NCI panel, 48 h

As for `CCc1ccc(/C=C\c2cc(OC)c(OC)c(OC)c2)cc1`, the TGI in the experiment on HS 578T breast was found to be 0.106 µM; in the experiment with NCI-H226 lung it was 0.0792 µM; in the experiment with MDA-MB-231 breast, 0.25 µM; in the experiment on SF-268 CNS, 46.9 µM; with SK-MEL-5 melanoma, 0.464 µM; in the experiment with OVCAR-3 ovarian, 0.206 µM. In the experiment with HOP-62 NSCLC, this molecule registered a TGI of 18.3 µM. Also, the GI50 in the experiment on SF-268 CNS is 0.06 µM; in the experiment on HOP-62 NSCLC, 0.0295 µM.
Turning to `O=C1CCC(=O)N2CCCCN12`, the TGI in the experiment with IGROV1 ovarian, in the experiment on NCI-H226 lung, with SF-268 CNS, in the experiment on SK-MEL-5 melanoma, in the experiment on OVCAR-3 ovarian and in the experiment with HOP-62 NSCLC was over 100 µM each time. In the experiment on U251 CNS, the TGI is over 100 µM.
As for `O=C1/C(=C/c2ccccc2)CNC/C1=C\c1ccccc1`, the TGI in the experiment with IGROV1 ovarian is 3.63 µM; in the experiment with NCI-H226 lung, 6.18 µM; in the experiment on SF-268 CNS it was 9.34 µM; in the experiment on SK-MEL-5 melanoma it was 4.07 µM; in the experiment with OVCAR-3 ovarian it was 3.09 µM; in the experiment with HOP-62 NSCLC, 7.46 µM. In the experiment with U251 CNS, this molecule came in with a TGI of 1.37 µM.
As to `O=C(c1ccccc1)c1nnc(C(=O)c2ccccc2)nn1`, the TGI in the experiment with IGROV1 ovarian, in the experiment on NCI-H226 lung, in the experiment with SF-268 CNS, in the experiment on SK-MEL-5 melanoma, in the experiment on OVCAR-3 ovarian and in the experiment with HOP-62 NSCLC was over 344 µM each time. The molecule also came in with a TGI in the experiment on U251 CNS of over 344 µM.
In the case of `CC1=NN(C(=O)Nc2ccccc2)C(=O)C2CCC(=O)N12` (stereo unspecified), the TGI in the experiment on IGROV1 ovarian, in the experiment on SF-268 CNS, in the experiment on SK-MEL-5 melanoma, with OVCAR-3 ovarian, in the experiment with HOP-62 NSCLC and in the experiment with U251 CNS was over 100 µM in each case.
As to `Cc1cc2c(cc1C)[n+](=O)c(C(=O)C/C(=N/NC(=O)CC#N)C(=O)Nc1ccccc1C(F)(F)F)c(C)n2[O-]`, the TGI with IGROV1 ovarian, in the experiment with NCI-H226 lung, with SF-268 CNS, in the experiment on OVCAR-3 ovarian, in the experiment on HOP-62 NSCLC and in the experiment on U251 CNS was over 100 µM each time.
For the molecule `CCOC(=O)[C]1([Bi]([CH3])[CH3])N=NC(C(=O)OC)=C1C(=O)OC` (stereo unspecified), the GI50 in the experiment with IGROV1 ovarian was 24.6 µM; in the experiment on NCI-H226 lung, 20.6 µM; in the experiment on SF-268 CNS, 17.2 µM; with OVCAR-3 ovarian, 16.5 µM; with HOP-62 NSCLC, over 100 µM; with U251 CNS, over 100 µM. Moreover, the TGI in the experiment with IGROV1 ovarian was 51.9 µM; in the experiment with NCI-H226 lung, 41.4 µM; with SF-268 CNS, 31.7 µM; in the experiment with OVCAR-3 ovarian, 31.7 µM; with HOP-62 NSCLC, over 100 µM; with U251 CNS, over 100 µM.
Take `CC(=O)OCCN1c2ccccc2Sc2cnccc21`: the TGI with IGROV1 ovarian, in the experiment with NCI-H226 lung, with MDA-MB-231 breast, with SF-268 CNS, with SK-MEL-5 melanoma and in the experiment on T-47D breast was over 10 µM each time. Besides, the TGI in the experiment with OVCAR-3 ovarian, in the experiment on HOP-62 NSCLC and with U251 CNS was over 10 µM each time.
Turning to `COC12C=C(C)C(CC1)CC2C(=O)O` (stereo unspecified), the TGI with IGROV1 ovarian, in the experiment with NCI-H226 lung, with SF-268 CNS, in the experiment on SK-MEL-5 melanoma, in the experiment on OVCAR-3 ovarian and in the experiment on HOP-62 NSCLC was over 100 µM each time. This molecule also displayed a TGI in the experiment with U251 CNS of over 100 µM.
As for `Brc1cccc(C=NC23CC4CC(CC(C4)C2)C3)c1`, the TGI in the experiment with IGROV1 ovarian, in the experiment with NCI-H226 lung, with SF-268 CNS, in the experiment on SK-MEL-5 melanoma, in the experiment with OVCAR-3 ovarian and with HOP-62 NSCLC was over 100 µM throughout. Besides, the TGI with U251 CNS was over 100 µM.
For the molecule `COc1ccc(C2=CC3CCC2C3)cc1` (stereo unspecified), the TGI with IGROV1 ovarian, in the experiment on SF-268 CNS, in the experiment with SK-MEL-5 melanoma, in the experiment with OVCAR-3 ovarian, with HOP-62 NSCLC and in the experiment with U251 CNS was over 100 µM in each case.
Regarding `O=c1c2cc([N+](=O)[O-])ccc2sc2ccsc12`, the TGI with IGROV1 ovarian, with NCI-H226 lung, in the experiment on SF-268 CNS, in the experiment on SK-MEL-5 melanoma, with OVCAR-3 ovarian and in the experiment with HOP-62 NSCLC was over 100 µM in each case. The TGI in the experiment on U251 CNS is over 100 µM.
On to `O=C1CCC2(c3ccc(F)cc3)Nc3cc(Cl)ccc3N12` (stereo unspecified), for which the TGI in the experiment with IGROV1 ovarian, with NCI-H226 lung, with SF-268 CNS, with SK-MEL-5 melanoma, in the experiment with OVCAR-3 ovarian and in the experiment on HOP-62 NSCLC was over 100 µM each time. This molecule displayed a TGI in the experiment with U251 CNS of over 100 µM.
`COc1ccc(/C(COc2c(-c3ccccc3)oc3ccccc3c2=O)=N\O)cc1`: the GI50 with IGROV1 ovarian is 22.9 µM; with NCI-H226 lung, 20.8 µM; in the experiment with MDA-MB-231 breast, 18.3 µM; with SF-268 CNS, 13.4 µM; in the experiment on SK-MEL-5 melanoma, 9.61 µM; in the experiment with T-47D breast it was 13.5 µM. In addition, the GI50 with HOP-62 NSCLC is 49.6 µM; with U251 CNS it was 18.9 µM. Moreover, the TGI in the experiment with IGROV1 ovarian was over 50 µM; in the experiment with NCI-H226 lung, over 50 µM; with MDA-MB-231 breast it was over 50 µM; in the experiment with SF-268 CNS, 41 µM; with SK-MEL-5 melanoma it was 20.1 µM; with T-47D breast, 41.6 µM. Besides, the TGI with HOP-62 NSCLC and with U251 CNS was over 50 µM in each case.
As to `COC(=O)C1Cc2c(n(Cc3ccccc3)c3ccccc23)C(CCC(=O)O)N1C(C)C` (stereo unspecified), the TGI in the experiment with IGROV1 ovarian, with NCI-H226 lung, in the experiment with SF-268 CNS, with SK-MEL-5 melanoma, in the experiment with OVCAR-3 ovarian and with U251 CNS was over 100 µM throughout.
For the molecule `O=C(/C=C/c1c(O)ccc2ccccc12)c1cccc(O)c1`, the TGI in the experiment on IGROV1 ovarian, with NCI-H226 lung, in the experiment on SF-268 CNS, with SK-MEL-5 melanoma, in the experiment on OVCAR-3 ovarian and in the experiment on HOP-62 NSCLC was over 100 µM each time. This molecule came in with a TGI with U251 CNS of over 100 µM.

For the origin of these results see PubChem BioAssay (NCI).
